Experimental data: paper PMC8706879 (Pharmaceuticals, 2021)
Like-named read-outs stand apart in the source and are kept apart here. Values belong to the compound of their own block, whether it stands above or below them. Where a SMILES comes first, the peptide text is derived from it. Bridges are numbered along the chain shown (N, C = ends). [ ]: non-standard residue; d: D form. The star is where a group is joined. DOTA = O=C(O)CN1CCN(CC(=O)O)CCN(CC(=O)*)CCN(CC(=O)O)CC1; dPhe(4-NHCONH2) = NC(=O)Nc1ccc(C[C@@H](N)C(=O)O)cc1; Dihydroorotyl(S) = O=C1C[C@@H](C(=O)*)NC(=O)N1; Phe(4-Cl) = N[C@@H](Cc1ccc(Cl)cc1)C(=O)O; Phe(4-NH2) = Nc1ccc(C[C@H](N)C(=O)O)cc1

Columns and labels:
human SST2 [1] = target: T1, human SST2 (Homo sapiens, UniProt P30874); experiment: biochemical
Procedure: (§1) To prepare cell membranes, HEK-SST2 cells were grown to confluence, mechanically disaggregated, washed with PBS (pH 7.4) and re-suspended in 20 mM of homogenisation Tris buffer (pH 7.5) containing 1.3 mM EDTA, 0.25 M sucrose, 0.7 mM bacitracin, 5 µM soybean trypsin inhibitor and 0.7 mM PMSF. The cells were homogenised using Ultra-Turrax, and the homogenised suspension was centrifuged at 500× g for 10 min at 4 °C. The supernatant was collected in centrifuge tubes (Beckman Coulter Inc., Brea, CA, USA). This procedure was then repeated 5 times. The collected supernatant was centrifuged in an ultra-centrifuge (Beckman) at 4 °C for 55 min at 20,000 rpm (approximately 49,000× g). Then, the pellet was re-suspended in 10 mM ice-cold HEPES buffer (pH 7.5), aliquoted, and stored at −80 °C. The protein concentration of those membrane suspensions was determined by the Bradford method, BSA as the standard.
(§2) In all assays, non-specific binding of [^177Lu]Lu-OPS201 was determined using 1000-fold excess of the unlabelled SST2 antagonist OPS202, also known as NODAGA-JR11, (where NODAGA is 1,4,7-triazacyclononane,1-glutaric acid-4,7-acetic acid). […] All reported values refer to specific binding (total minus non-specific binding). The radioactivity of all samples was measured in a gamma-counter (COBRA 5003, Packard Instruments). For all binding experiments with membranes, bound radioligand was separated from the one remaining in solution by rapid vacuum filtration, using an M-48 Brandel Cell Harvester (Alpha Biotech Ltd., Glasgow, UK). The filters were dried before being measured in the gamma-counter.
The dissociation of those radioligands was initiated by adding a 1000-fold excess of either unlabelled Lu-OPS201, Lu-DOTA-TATE, DOTA-BASS or lanreotide and monitored for up to 3 h. To monitor the stability of the radioligand–receptor complex during this extended time period, the membranes were incubated with radioligand for up to 4 h.

HEK-SST2 cells [2] = experiment: Radioligand binding to and internalisation by intact HEK-SST2 cells; format: cell-based, human; conditions: for cell surface bound fraction of total added radioligand / internalised fraction of total added radioligand: 4 h incubation at 37 °C, 2.5 nM
Procedure: The HEK-293 cell line expressing the T7-epitope tagged human SST2 (HEK-SST2) was provided by Prof. Stefan Schulz (Institute of Pharmacology and Toxicology, Jena University Hospital, Jena, Germany). HEK-SST2 cells were cultured at 37 °C and 5% CO2 in DMEM containing 10% FBS, 100 U/mL penicillin, 100 µg/mL streptomycin, […] L-glutamine, and 500 µg/mL geneticin (G-418).
(§3) In vitro assays on intact cells were performed with HEK-SST2 cells seeded in 6-well plates. The plates were pre-treated with a solution of 10% poly-lysine to promote cell attachment. HEK-SST2 cells (about 1 × 10^6 cells) were incubated in 1% (v/v) FBS containing medium at 37 °C/5% CO2 overnight. The day after, the cells were washed with medium, followed by incubation with the adjusted medium volume for 1 h prior starting the experiment.
as §2
After 0.5, 1, 2 and 4 h (one plate per time point), the medium was removed, and the plated cells were quickly washed twice with ice-cold PBS. The cells were then treated twice for 5 min with ice-cold glycine solution (0.05 M, pH 2.8) to detach the cell surface-bound radioligand (acid releasable). Afterwards, the cells containing the internalised radioligand were detached with 1 M NaOH at 37 °C and collected for measurement. The amount of specific cell surface-bound and internalised radioligand is expressed as a percentage of the total applied activity after subtracting the non-specific values.

HEK-SST2 cells [3] = experiment: Sub-cellular redistribution of cell surface-bound radioligand at 37 °C; format: cell-based, human; set-up: reduction of initial surface-bound fraction: concentration or dose not given beside the values
Procedure: as §3, §2
The cell surface-bound internalisation and dissociation rates of [^177Lu]Lu-OPS201 were studied in HEK-SST2 cells seeded in 6-well plates (10^6 cells/well), which were first placed on ice for 30 min. The experiment was started by adding 2.5 nM [^177Lu]Lu-OPS201 to the medium, and the incubation was carried out at 4 °C for 2 h to prevent internalisation of the radioligand. Afterwards, the cells were washed with ice-cold PBS, and 1 mL/well of fresh pre-warmed (37 °C) medium was added. One plate was immediately treated with ice-cold glycine solution, and then the cells were detached with NaOH to determine the initial surface-bound and internalised fraction. The other plates were incubated at 37 °C for 10, 20, 30, 60, 120 or 240 min (one plate per time point) before the same treatment. At the specified time points, the amount of radioactivity, presented as cell surface-bound, internalised and in medium redistributed radioligand, was expressed in percentage of the cell-associated fraction (surface bound and internalised uptake) at the onset of the redistribution step as control. All reported values have been corrected for non-specific uptake.

HEK-SST2 cells [4] = experiment: Externalisation of [^177Lu]Lu-DOTA-TATE by intact cells; format: cell-based, human
Procedure: (§4) In vitro assays on intact cells were performed with HEK-SST2 cells seeded in 6-well plates. The plates were pre-treated with a solution of 10% poly-lysine to promote cell attachment. HEK-SST2 cells (about 1 × 10^6 cells) were incubated in 1% (v/v) FBS containing medium at 37 °C/5% CO2 overnight. The day after, the cells were washed with medium, followed by incubation with the adjusted medium volume for 1 h prior starting the experiment. […] The cells were afterwards incubated at 37 °C under the same three different conditions as above. […] At the end, the cells were treated with NaOH and collected for measurement. All reported values were also normalised as described above. In both aforementioned experiments, the 37 °C washout medium was repeatedly refreshed in an attempt to limit any re-equilibration between free and cell-associated radioligand and to reduce the accumulation (and thus the rebinding) of radioligand molecules when they were already dispersed in the bulk of the naïve medium. All data were fitted according to the one-phase exponential decay equation (GraphPad Software Inc., Prism 7).

human SST2 [5] = target: T1, human SST2; experiment: Saturation binding on HEK-SST2 cell membranes
Procedure: as §1, §2
The incubation was initiated by adding 30 μL of radioligand solution at 10 times the final concentration and 100 μL of cell membrane suspension to yield 10 μg of protein per well.

HEK-SST2 cells [6] = experiment: Dissociation/release of cell-associated [^177Lu]Lu-OPS201 by intact cells; format: cell-based, human; conditions: after 4 h at 37 °C
Procedure: as §4, with “then” for “afterwards”, “under three different conditions: […] At preselected time points, the medium was removed for quantification and replaced by fresh pre-warmed (37 °C) medium (either alone or with” for “under”, “unlabelled competitor).” for “three different conditions as above.”, “All” for “All reported”

[7] = after 2 h pre-incubation at 4 °C
[8] = after 4 h of incubation at 37 °C

T1 sequence (P30874 whole entry): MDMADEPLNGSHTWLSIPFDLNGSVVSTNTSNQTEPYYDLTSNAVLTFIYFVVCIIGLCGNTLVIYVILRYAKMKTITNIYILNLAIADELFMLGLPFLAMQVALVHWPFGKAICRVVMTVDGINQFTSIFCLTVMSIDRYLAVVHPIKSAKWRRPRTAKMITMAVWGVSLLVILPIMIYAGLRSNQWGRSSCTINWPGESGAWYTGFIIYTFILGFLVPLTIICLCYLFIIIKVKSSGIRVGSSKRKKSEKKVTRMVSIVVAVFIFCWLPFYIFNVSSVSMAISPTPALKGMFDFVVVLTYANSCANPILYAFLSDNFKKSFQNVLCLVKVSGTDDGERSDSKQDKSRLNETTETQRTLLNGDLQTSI

Compound: H-D2Nal-c(Cys-Tyr-DTrp-Lys-Val-Cys)-Thr-NH2 [lanreotide, reference compound]
displacement of specifically bound [^177Lu]Lu-OPS201 by the unlabelled agonist (human SST2 [1]; high concentration (1000-fold excess) of competitor, HEK-SST2 membranes): no more than 30%

Compound: C[C@@H](O)[C@H](NC(=O)[C@@H]1CSSC[C@H](NC(=O)[C@@H](Cc2ccccc2)NC(=O)CN2CCN(CC(=O)O)CCN(CC(=O)O)CCN(CC(=O)O)CC2)C(=O)N[C@@H](Cc2ccc(O)cc2)C(=O)N[C@H](Cc2c[nH]c3ccccc23)C(=O)N[C@@H](CCCCN)C(=O)N[C@@H]([C@@H](C)O)C(=O)N1)C(=O)O [[^177Lu]Lu-DOTA-TATE, ^177Lu-oxodotreotide, metal not drawn]
internalised fraction (HEK-SST2 cells [2]; 30 min of incubation at 37 °C): more than 50%
cell surface bound fraction of total added radioligand (HEK-SST2 cells [2]): 2 ± 1%
internalised fraction of total added radioligand (HEK-SST2 cells [2]): 77 ± 3%
cell surface binding at 4 °C (HEK-SST2 cells [3]; 4 °C): very low cell surface binding
decrease of internalised radioligand during washout (HEK-SST2 cells [4]; after 4 h in naïve medium, 37 °C): only partial
decrease of internalised radioligand during washout (HEK-SST2 cells [4]; after 4 h in the presence of an excess of Lu-DOTA-TATE and Lu-OPS201, 37 °C): nearly complete

dissociation t1/2 (human SST2 [1]): 41 min
koff (human SST2 [1]; HEK-SST2 membranes, competitor DOTA-BASS): 0.0003 s⁻¹
koff (human SST2 [1]; HEK-SST2 membranes, competitor Lu-OPS201): 0.000283 s⁻¹
dissociation t1/2 (human SST2 [1]; competitor: excess DOTA-BASS): 38 min
Bmax (human SST2 [5]; HEK-SST2 cell membranes 10 µg/well, 37 °C, single-site model): 0.37 ± 0.02 nM
Kd (human SST2 [5]; HEK-SST2 cell membranes, 37 °C, single-site model): 0.15 ± 0.003 nM
number of binding sites recognised relative to [^177Lu]Lu-DOTA-TATE (human SST2 [5]; saturation binding, HEK-SST2 cell membranes): about four times more sites
Compound: C[C@@H](O)[C@@H]1NC(=O)[C@H](CCCCN)NC(=O)[C@@H](Cc2ccc(NC(N)=O)cc2)NC(=O)[C@H](Cc2ccc(NC(=O)[C@@H]3CC(=O)NC(=O)N3)cc2)NC(=O)[C@H](NC(=O)[C@H](Cc2ccc(Cl)cc2)NC(=O)CN2CCN(CC(=O)O)CCN(CC(=O)O)CCN(CC(=O)O)CC2)CSSC[C@@H](C(=O)N[C@H](Cc2ccc(O)cc2)C(N)=O)NC1=O [[^177Lu]Lu-OPS201, ^177Lu-satoreotide tetraxetan, metal not drawn] ({DOTA}-[Phe(4-Cl)][dC][Phe(4-NH2)](Dihydroorotyl(S))[dPhe(4-NHCONH2)]KTC[dY]-NH2; disulfide 2-7)
cell surface bound fraction of total added radioligand (HEK-SST2 cells [2]): 46 ± 2%
internalised fraction of total added radioligand (HEK-SST2 cells [2]): 31 ± 1%
internalised fraction of added radioligand (HEK-SST2 cells [3]; [7]): 7%
surface-bound fraction of added radioligand (HEK-SST2 cells [3]; [7]): 54%
fraction released in the medium (HEK-SST2 cells [3]; after 4 h at 37 °C, undisturbed medium): < 5%
internalised fraction (of cell-associated activity) (HEK-SST2 cells [3]; [8]): 24%
reduction of initial surface-bound fraction (HEK-SST2 cells [3]; [8]): 17%
surface-bound fraction (of cell-associated activity) (HEK-SST2 cells [3]; [8]): 71%
internalised fraction (of cell-associated activity) (HEK-SST2 cells [3]; t = 0 of 37 °C incubation): 12%
surface-bound fraction (of cell-associated activity) (HEK-SST2 cells [3]; t = 0 of 37 °C incubation): 88%
radioligand released (HEK-SST2 cells [6]; repeatedly refreshed naïve medium): 40%
radioligand released (HEK-SST2 cells [6]; washout medium with excess of unlabelled Lu-OPS201 or Lu-DOTA-TATE): 70%
